# Measured values taken from ChEMBL document CHEMBL1201862, “PubChem BioAssay data set” (2004).
#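 Results reflect a 48-hour exposure of cells in 96-well plates to compound at five concentrations. The concentration for 50% growth inhibition is given as GI50.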 The source made the active and inactive calls. No stated cut-off is given here; in the data, active = GI50 up to about 1.1 µM and inactive = higher.
# Assays:
# Experiment in all cases: growth of human tumour cells (NCI), 48 h
# [1] = system: 786-0
# [2] = system: A498
# [3] = system: A549
# [4] = system: ACHN
# [5] = system: BT-549
# [6] = system: CAKI-1
# [7] = system: CCRF-CEM
# [8] = system: COLO 205
# [9] = system: DU-145
# [10] = system: EKVX
# [11] = system: HCC 2998
# [12] = system: HCT-116
# [13] = system: HCT-15
# [14] = system: HL-60
# [15] = system: HOP-62
# [16] = system: HOP-92
# [17] = system: HT-29
# [18] = system: Hs-578T
# [19] = system: IGROV-1
# [20] = system: K562
# [21] = system: KM12
# [22] = system: LOX IMVI
# [23] = system: M14
# [24] = system: MCF7
# [25] = system: MDA-MB-231
# [26] = system: MDA-MB-435
# [27] = system: MDA-N
# [28] = system: MOLT-4
# [29] = system: Malme-3M
# [30] = system: NCI-H226
# [31] = system: NCI-H23
# [32] = system: NCI-H460
# [33] = system: NCI-H522
# [34] = system: NCI/ADR-RES
# [35] = system: OVCAR-3
# [36] = system: OVCAR-4
# [37] = system: OVCAR-5
# [38] = system: OVCAR-8
# [39] = system: PC-3
# [40] = system: RPMI-8226
# [41] = system: RXF 393
# [42] = system: SF-268
# [43] = system: SF-295
# [44] = system: SK-MEL-28
# [45] = system: SK-MEL-2
# [46] = system: SK-MEL-5
# [47] = system: SK-OV-3
# [48] = system: SN12C
# [49] = system: SNB-19
# [50] = system: SR
# [51] = system: SW-620
# [52] = system: T47D
# [53] = system: TK-10
# [54] = system: U-251
# [55] = system: UACC-257
# [56] = system: UACC-62
# [57] = system: UO-31
# [58] = system: SF-539
# [59] = system: SNB-75
smiles,measurement,setting,value
Nc1ccc(Oc2ccc(C34CC5CC6C3CC3CC4C(C5)C6(c4ccc(Oc5ccc(N)cc5)cc4)C3)cc2)cc1,GI50,[1],13.4 µM (inactive)
same,GI50,[2],22.2 µM (inactive)
same,GI50,[3],12.6 µM (inactive)
same,GI50,[4],3.17 µM (inactive)
same,GI50,[5],34.4 µM (inactive)
same,GI50,[6],19 µM (inactive)
same,GI50,[7],15.4 µM (inactive)
same,GI50,[8],< 0.01 µM (active)
same,GI50,[9],8.93 µM (inactive)
same,GI50,[10],11.5 µM (inactive)
same,GI50,[11],18 µM (inactive)
same,GI50,[12],8.41 µM (inactive)
same,GI50,[13],21.8 µM
same,GI50,[14],7.14 µM (inactive)
same,GI50,[15],18.3 µM (inactive)
same,GI50,[16],2.9 µM (inactive)
same,GI50,[17],10.2 µM (inactive)
same,GI50,[18],25.4 µM (inactive)
same,GI50,[19],23.8 µM (inactive)
same,GI50,[20],10.2 µM (inactive)
same,GI50,[21],19.5 µM (inactive)
same,GI50,[22],20 µM (inactive)
same,GI50,[23],0.583 µM (active)
same,GI50,[24],36.2 µM (inactive)
same,GI50,[25],9.08 µM (inactive)
same,GI50,[26],0.376 µM (active)
same,GI50,[27],0.334 µM (active)
same,GI50,[28],7.98 µM (inactive)
same,GI50,[29],0.216 µM (active)
same,GI50,[30],22.8 µM (inactive)
same,GI50,[31],26.4 µM (inactive)
same,GI50,[32],21.4 µM (inactive)
same,GI50,[33],12.8 µM (inactive)
same,GI50,[34],> 74.6 µM (inactive)
same,GI50,[35],6.5 µM (inactive)
same,GI50,[36],11.1 µM (inactive)
same,GI50,[37],> 100 µM (inactive)
same,GI50,[38],31.9 µM (inactive)
same,GI50,[39],8.26 µM (inactive)
same,GI50,[40],13 µM (inactive)
same,GI50,[41],18.6 µM (inactive)
same,GI50,[42],22.6 µM (inactive)
same,GI50,[43],23.8 µM (inactive)
same,GI50,[44],0.714 µM (active)
same,GI50,[45],4.37 µM (inactive)
same,GI50,[46],0.561 µM (active)
same,GI50,[47],22.8 µM (inactive)
same,GI50,[48],25.1 µM (inactive)
same,GI50,[49],9.53 µM (inactive)
same,GI50,[50],21.9 µM (inactive)
same,GI50,[51],19.7 µM (inactive)
same,GI50,[52],9.14 µM (inactive)
same,GI50,[53],21.6 µM (inactive)
same,GI50,[54],2.9 µM (inactive)
same,GI50,[55],0.329 µM (active)
same,GI50,[56],2.74 µM (inactive)
same,GI50,[57],8.36 µM (inactive)
Cc1cc(C(C)(C)C)c(OCCCN2CCOCC2)c(C(C)(C)C)c1,GI50,[1],17.3 µM (inactive)
same,GI50,[2],18.9 µM (inactive)
same,GI50,[3],17.5 µM (inactive)
same,GI50,[4],17.4 µM (inactive)
same,GI50,[5],17.5 µM (inactive)
same,GI50,[6],19.1 µM (inactive)
same,GI50,[7],16.6 µM (inactive)
same,GI50,[8],15.7 µM (inactive)
same,GI50,[9],17.1 µM (inactive)
same,GI50,[10],17.9 µM (inactive)
same,GI50,[11],16.7 µM (inactive)
same,GI50,[12],16.7 µM (inactive)
same,GI50,[13],18 µM
same,GI50,[14],14.1 µM (inactive)
same,GI50,[15],19.5 µM (inactive)
same,GI50,[16],20.4 µM (inactive)
same,GI50,[17],16.3 µM (inactive)
same,GI50,[18],20.7 µM (inactive)
same,GI50,[19],19.5 µM (inactive)
same,GI50,[20],16.6 µM (inactive)
same,GI50,[21],17.5 µM (inactive)
same,GI50,[22],20.6 µM (inactive)
same,GI50,[23],16.8 µM (inactive)
same,GI50,[24],18.6 µM (inactive)
same,GI50,[25],17.4 µM (inactive)
same,GI50,[26],19.4 µM (inactive)
same,GI50,[27],18.1 µM (inactive)
same,GI50,[28],17.1 µM (inactive)
same,GI50,[29],20.1 µM (inactive)
same,GI50,[31],17.5 µM (inactive)
same,GI50,[32],30.9 µM (inactive)
same,GI50,[33],17.9 µM (inactive)
same,GI50,[34],17 µM (inactive)
same,GI50,[35],19.2 µM (inactive)
same,GI50,[36],15.9 µM (inactive)
same,GI50,[37],17.9 µM (inactive)
same,GI50,[38],20.2 µM (inactive)
same,GI50,[39],15.8 µM (inactive)
same,GI50,[40],14.1 µM (inactive)
same,GI50,[41],16 µM (inactive)
same,GI50,[42],18.7 µM (inactive)
same,GI50,[43],17.5 µM (inactive)
same,GI50,[58],18.7 µM (inactive)
same,GI50,[44],16.4 µM (inactive)
same,GI50,[45],16.5 µM (inactive)
same,GI50,[46],15.9 µM (inactive)
same,GI50,[47],20 µM (inactive)
same,GI50,[48],17.8 µM (inactive)
same,GI50,[49],17.3 µM (inactive)
same,GI50,[59],16.7 µM (inactive)
same,GI50,[50],17.7 µM (inactive)
same,GI50,[51],16.9 µM (inactive)
same,GI50,[52],15.1 µM (inactive)
same,GI50,[53],19.3 µM (inactive)
same,GI50,[54],18 µM (inactive)
same,GI50,[55],17.3 µM (inactive)
same,GI50,[56],16 µM (inactive)
same,GI50,[57],18.3 µM (inactive)
